Experimental data reported in US6794495B1, “Composition comprising extensin and, optionally, pectic polysaccharides” (New Nordic Danmark APS, priority 1998, dated 2004).

Tested on: Tetrahymena thermophila cells
Test: Oligo-cell experiments: cloning efficiency in synthetic nutrient medium
Assay type: cell-based
Description: The invention was the result of a laboratory test program using in vivo cell signalling model. The application of a nutritionally complete synthetic (NCS) medium in an oligo-cell experimental research program in which cells demise (or eventually have a prolonged lag-phase) was used for gaining scientific information related to determining the effectiveness of pectins and pectin and extensin combinations as biochemical messengers. An additional control was supplemented with cephalin, that activates cells to multiplication. The effect of an activator added to the NCS medium is compared directly to the control that demises. Apparently, any compound or combination of compounds can be examined in light of the question whether it can activate a cell to survive and/or proliferate. From the beginning of the 1980's the effect of biochemical messengers has been examined with cells grown in an NCS medium free of proteins, lipids, and sugars. Signalling applies to unicellular and multicellular organisms, and the idea of NCS media is that a biochemical messenger can be tested for its biological effect on the cells to gain insight in cellular signalling mechanisms. Biochemical messengers are related to the four biological cornerstones of the eukaryotic cell: survival, proliferation, differentiation, and programmed cell death.
In oligo-cell experiments, different pectins and combinations of pectins and extensins were examined for their ability to activate Tetrahymena thermophila cells to survival and/or proliferation. The Tetrahymena cell has nutritional requirements similar to those of animals. They contain subcellular organelles such as mitochondria and peroxisomes, which are essential for the development of regulatory mechanisms in cellular metabolism. […]
Cloning efficiencies were determined from cell multiplications in a synthetic nutrient medium without and with supplements. […]

Substance: cephalin
- Cloning efficiencies (50 mg/L in synthetic nutrient medium, experiments with cell multiplication after 30 hours / total experiments, about two cells in two mL, first experiment): 15/15
- Cloning efficiencies (50 mg/L in synthetic nutrient medium, experiments with cell multiplication after 30 hours / total experiments, about two cells in two mL, second experiment (sugar beet fiber)): 15/15
- Cloning efficiencies (controls supplemented with cephalin, evaluated after 30 hours): 92%
